Bounds are passed on as bounds.

On to `Oc1c(-c2nnn[nH]2)cnc2c(Br)cccc12`, for which the melting point was over 260 °C.

In turn, `O=C1NC(Cc2ccccc2)C(C(=O)O)O1` (stereo not drawn) registered a melting point of 172 to 174 °C. With `Nc1ccc(C(c2ccc(N)cc2)(c2ccc(I)cc2)C(F)(F)F)cc1`, the melting point fell in the range of 171 to 172 °C. Regarding `Clc1cccc(C2=Nc3cccnc3Nc3ccccc32)c1`, the melting point turned out to be 160 °C.

In the case of `O=C(Nc1c(-c2ccccc2F)nnn1CSc1ccccc1)C(Cl)C1CCC1` (stereo not drawn), the melting point fell in the range of 103 to 104 °C. As for `CCOC(=O)C(=O)Nc1ccc(C#N)c2ccccc12`, the figure is 164 °C; as for `OCc1cnoc1-c1ccc(OC(F)(F)F)cc1`, 45 to 46 °C; as for `CN1CCC(O)(c2cc(F)cc(F)c2)C1` (stereo not drawn), 150 °C.

With `COc1ccc(N/C=C2\C(=O)NC(=O)c3ccccc32)cc1`, the melting point was in the range of 150 to 151 °C. Take `CC(C(=O)O)c1ccc2c(c1)Cc1cc(F)ccc1S2` (stereo not drawn): the melting point fell in the range of 140 to 145 °C. As for `CC(C)[C@@H]1C[C@H](O)[C@H](C2CCCCC2)NC1=O`, the figure is 97 to 99 °C; as for `FC(F)(F)c1ccc(I)c(I)c1`, 62 to 64 °C.

Compound `Nc1cc(C(F)(F)F)ccc1-c1cc(Oc2ccc3cccnc3c2)ncn1` returned a melting point of 193 to 194 °C. The compound `O=[N+]([O-])c1cc(CO)cc([N+](=O)[O-])c1-c1ccc(O)cc1` returned a melting point of 156 to 158 °C. Take `CC(C)(C)OC(=O)N[C@@H]1CN(C2CCCCC2)c2ccccc2NC1=O`: the melting point is 156 to 159 °C. The compound `Nc1cc(C(=O)O)nn1-c1c(Cl)cc(C(F)(F)F)cc1Cl` came in with a melting point of 213 °C.

In turn, `CC(C)(CC(C)(Sc1cc(C(C)(C)C)c(O)c(C(C)(C)C)c1)Sc1cc(C(C)(C)C)c(O)c(C(C)(C)C)c1)Sc1cc(C(C)(C)C)c(O)c(C(C)(C)C)c1` registered a melting point of 93 to 115 °C. The compound `CCNc1c(OC)cc(C(=O)OC)cc1OC` returned a melting point of 50 to 51 °C. In the case of `O=C1NN=C(c2ccc(C(F)(F)F)cc2)CC1C(F)(F)F` (stereo not drawn), the melting point was 135 to 136 °C. The compound `COc1ccc(-n2nc(C(C)(C)C)cc2NC(=O)c2nccc3cc(Oc4cc(Cl)ncn4)ccc23)cc1` had a melting point of 156 °C. `CCc1cc(C#N)c(OC)nc1C`: the melting point was in the range of 59 to 61 °C.

`COCC(C)NC1=NS(=O)(=O)c2cc(Cl)cnc2N1` (stereo not drawn) gave a melting point of 150 to 156 °C. The compound `CCOC(=O)C1=CC2(CCC1S(=O)(=O)Nc1ccc(F)cc1Cl)OCCCCO2` (stereo not drawn) gave a melting point of 142 to 144 °C. With `CC(CN1CCCC1)N1c2ccccc2Sc2ccc(C(=O)NCc3c(Cl)cccc3Cl)cc21` (racemic), the melting point stood at 138 °C.

Consider `O=c1c2ccc(O)cc2oc2c(O)c(O)ccc12`, for which the melting point is over 300 °C. For the compound `CC12CC(C)(C1)C(=O)N(C(C)(C)C)C2=O`, the melting point was 65 to 65.5 °C. With `COc1ccc(Sc2cc(Cl)ccc2[N+](=O)[O-])c(C(=O)O)c1`, the melting point lay within 184 to 186 °C.

`CCCCc1nc2c(N)nc3c(c2n1CC(C)C)NCCC3` came in with a melting point of 143 to 147 °C. In turn, `CCOC1CC(n2cc(CC)c(=O)[nH]c2=O)OC1CNC(=O)Cc1c(Cl)cccc1Cl` (stereo not drawn) had a melting point of 249 to 250 °C. For the compound `c1ccc2c(c1)Cc1ccccc1N2`, the melting point is 170 to 171 °C. Regarding `O=c1n(CCO)c2ccccc2n1CCO`, the melting point lay within 145 to 158 °C. Compound `CCOCc1nc2c(N)nc3ccccc3c2n1CCOCCNC(=O)N1CCOCC1` came in with a melting point of 178 to 181 °C. In the case of `C[Si](C)(C)C#CCn1nc(-c2ccc(F)c(Br)c2)ncc1=O`, the melting point is 103 to 105 °C. The compound `CON1C=C2N=Nc3cc(-c4ccccc4)cnc3N2C1` returned a melting point of 225 to 227 °C. Compound `Brc1c[nH]c(CN2CCCC2)c1` displayed a melting point of 96 to 99 °C. For `CNC(=O)Nc1n[nH]c(-c2ccncc2)c1-c1ccc(F)cc1`, the melting point lay in the range of 212 to 213 °C. For the compound `COc1ccc2c(c1)C(=O)C(Cc1ccccn1)CO2` (stereo not drawn), the melting point was in the range of 112 to 114 °C. As for `CN1c2ccc(-c3ccc4ccccc4c3)cc2S(=O)(=O)c2cc(-c3ccc4ccccc4c3)ccc21`, the melting point is 328 to 332 °C. `COc1ccc(Sc2ccccc2CC#N)cc1` registered a melting point of 65 to 67 °C.

`O=C(O)COc1ccc(F)cc1C(=O)NCc1ccc(Br)cc1F`: the melting point lay in the range of 145 to 146 °C.

The compound `CCON=C(C(C)=NOCc1ccccc1C(=NOC)C(=O)NC)c1ccc(Oc2ccc(Cl)cc2)cc1` displayed a melting point of 126 to 129 °C. Turning to `CC(=O)NC[C@H]1CN(c2cc(F)c3c(c2)CCCCC3=O)C(=O)O1`, the melting point lay in the range of 151 to 152 °C. Under `O=C(O)CCCCCCNC(=O)C1Cc2ccccc2N1S(=O)(=O)c1ccc(-c2cccc(C(F)(F)F)c2)cc1` (stereo not drawn) stands 65 to 70 °C.

With `Nc1cc(C(=O)O)cc(S(N)(=O)=O)c1Nc1cccc(C(F)(F)F)c1`, the melting point lay within 273 to 274 °C.

As to `O=C1C2=C(CCCC2)C(=S)N1c1ccc(Cl)cc1F`, the melting point was 101 to 102 °C. `CCOC(=O)On1nnc2ccc(Cl)cc21` showed a melting point of 160 to 162 °C. Regarding `OCCCCNC1CCCCC1`, the melting point was in the range of 48 to 50 °C.

For the compound `CC(C)(O)c1ccc(-c2nn(Cc3ccccc3)c3ccccc23)o1`, the melting point lay within 124 to 127 °C. `Cn1ncc2c1CC(C)(C)C(C=O)C2=O` (stereo not drawn): the melting point lay in the range of 131 to 132 °C. For `CC(=O)Nc1scc(C(C)(C)C)c1C(N)=O`, the melting point was determined as 251 °C. With `CN=C(SCc1ccc(OC)cc1)C1(c2cccnc2)CCCCC1CCO` (stereo not drawn), the melting point fell in the range of 145 to 146 °C. As to `CCOCc1nc2c(N)nc3c(c2n1CCCCS(=O)(=O)N(C)C)CCCC3`, the melting point lay in the range of 165 to 167 °C. Consider `CNCC(=O)Nc1ccc(S(=O)(=O)c2cccc(Cl)c2)cc1`, for which the melting point lay in the range of 110 to 112 °C. As to `Nc1nc(SCc2ccccn2)nc(Cl)c1Br`, the melting point was in the range of 119 to 120 °C.

Take `OCC(O)Cn1cnc2c(Cl)nc3ccccc3c21` (stereo not drawn): the melting point is 223 to 225 °C.

Turning to `Cc1nn(-c2cc(OS(C)(=O)=O)c(Cl)cc2F)c(C)c1C`, the melting point was in the range of 123 to 125 °C.

With `COc1cc(C)cc(C(O)=S)c1OC`, the melting point lay within 139 to 141 °C. For the compound `CCCCCCOc1ccc(C=CC(C)=CC=CC(=O)O)cc1`, the melting point fell in the range of 181 to 185 °C.

In turn, `CCCCOC(Cl)C(=O)NCC1OC(C)C(C)O1` (stereo not drawn) registered a melting point of 28 °C. `Cc1ccc(S(=O)(=O)OC2=C(Br)C(=O)c3ccc4c(c3C2=O)CCC(C)(C)O4)cc1` showed a melting point of 168 to 170 °C. As for `COc1cccc(-c2c(/C=C/C(=O)NCCCCc3cccnc3)ccc3ccc(OC)cc23)c1`, the melting point was 108 to 110 °C. The compound `CNC(=O)c1ccc(NC(=O)Oc2ccccc2)cc1` displayed a melting point of 190 to 192 °C. On to `COc1cc(O)c(C(=O)C=Cc2ccc(OC(C)=O)cc2)c(OC)c1`, for which the melting point was 142 °C. The compound `CCn1cc(C(=O)OCC(=O)O)c(=O)c2cc3c(cc21)OCO3` showed a melting point of 240 to 243 °C.

Regarding `Nc1cccc(-c2ccc(CCN3CCN(CCc4ccccc4)CC3)c3ccccc23)n1`, the melting point lay within 80 to 105 °C.

`CCS(=O)(=O)c1cc(S(N)(=O)=O)sc1S(=O)(=O)CC` came in with a melting point of 176 to 177 °C. Under `OCC1OC(n2cnc3c(NCCCC(c4ccccc4)c4ccccc4)ncnc32)C(O)C1O` (stereo not drawn) stands 102 to 108 °C; under `O=P(O)(O)c1ccc2ccccc2n1`, 200 °C; under `CC(C)C(c1ccc(O)cc1)N1CCOCC1` (stereo not drawn), 142 to 143 °C. Take `COc1ccc(C(F)(F)F)cc1C(=O)c1ccc(C#N)cc1`: the melting point came to 88 °C. As to `Cc1c(CO)oc2ccc([N+](=O)[O-])cc12`, the melting point lay within 149 to 150 °C. Turning to `Cc1ccc(S(=O)(=O)NP(N)(N)=O)cc1`, the melting point was 114 to 118 °C. In the case of `COCCn1c(=O)[nH]c2ncc(-c3ccc(O)cc3)nc21`, the melting point was in the range of 236 to 237 °C.

`CC(=O)c1ccc(NS(=O)(=O)N(C)C)cc1`: the melting point was 129 to 130 °C. Turning to `CCCCCCN(C=CC=C(C#N)C#N)CCCCCC`, the melting point lay in the range of 112 to 113 °C. Under `COc1ccc(N2CCN(Cc3cnc(N)nc3N)CC2)cc1` stands 239 to 241 °C; under `CCOC(=O)c1cc(OCc2ccccc2)c2ccc(C#N)cc2c1`, 125 °C. Compound `COC(=O)c1ccc2[nH]cc(CCCCN3CCN(c4ccc5c(c4)OCCO5)CC3)c2c1` yielded a melting point of 177 to 179 °C. As for `Fc1ccc(C2(c3ccc(F)cc3)CNC(c3cnccn3)=N2)cc1`, the figure is 144 to 146 °C; as for `Cn1c(=S)c(-c2cccs2)nc2ccccc21`, 113 °C; as for `CC1(C)SC(=N)NC1=O`, 252 to 254 °C. In turn, `COc1cc(C)c(C(C)O)cc1NC(=S)N1CCN(c2cc(Cl)cc(Cl)c2)CC1` (stereo not drawn) registered a melting point of 166 to 168 °C. Under `Cc1nc2ccccc2c(NCc2ccccc2)c1C(=O)O` stands 190 °C; under `CCCCc1oc2ccccc2c1CCc1ccc(OS(=O)(=O)c2ccc(C(=O)O)c(OC(C)=O)c2)cc1`, 54 to 57 °C; under `COCC(O)Cn1c2ccc(OC)cc2c2c3c(c(-c4ccccc4)cc21)C(=O)NC3=O` (stereo not drawn), 128 to 136 °C.

`O=C1Nc2cccnc2N(C(=O)N2CCCC(CCCCN3CCCC3)C2)c2ccccc21` (stereo not drawn) came in with a melting point of 153 to 156 °C.

For `COc1ccc(-c2cc(=S)n(Cc3ccccc3)nc2-c2ccc(OC)cc2)cc1`, the melting point was 135 to 149 °C. In the case of `O=C(Nc1ccc2oc3c(c2c1)CCCC3)c1ccc([N+](=O)[O-])cc1`, the melting point was in the range of 279 to 280 °C.

As to `CC(C)Oc1cccc2c1C(=NNc1ccc(S(N)(=O)=O)cc1)C(=O)N2`, the melting point is over 250 °C. For the compound `Nc1c(Cl)cc(C(=O)O)c2c1CCCO2`, the melting point amounted to 226 °C. The compound `CCN(CC)CCN(c1cc(OC)c(C)cc1[N+](=O)[O-])S(=O)(=O)c1ccc(C)cc1` had a melting point of 114 °C. With `CN1C=CNC1=C(C(=O)C(F)(F)F)C(=O)C(F)(F)F`, the melting point was 180 °C. With `O=[N+]([O-])c1cc(Cl)c(OCCCO)c([N+](=O)[O-])c1OCCCO`, the melting point was 90 °C.

The term melting point denotes the temperature of the solid-liquid transition.

(Values after a melting point compilation (Tetko et al.; mined from patent text by program, amines drawn as free bases though some values may be those of a salt).)
